Experimental findings from patent US9126999B2, “Tetrahydropyrazolopyrimidine compounds” (EISAI R&D MANAGEMENT CO., LTD., priority 2012, dated 2015) are described below.

Where “and” joins values, the source holds several entries; their conditions need not be identical. Equal values may be shown once. Read-outs that look alike come from different tables or passages of the source.

One experiment deals with T1, Mouse TLR7 (Mus musculus, UniProt P58681).
T1 construct: endogenous in cells; host or cells: female BALB/c mice, in vivo
T1 sequence (P58681 27-1050): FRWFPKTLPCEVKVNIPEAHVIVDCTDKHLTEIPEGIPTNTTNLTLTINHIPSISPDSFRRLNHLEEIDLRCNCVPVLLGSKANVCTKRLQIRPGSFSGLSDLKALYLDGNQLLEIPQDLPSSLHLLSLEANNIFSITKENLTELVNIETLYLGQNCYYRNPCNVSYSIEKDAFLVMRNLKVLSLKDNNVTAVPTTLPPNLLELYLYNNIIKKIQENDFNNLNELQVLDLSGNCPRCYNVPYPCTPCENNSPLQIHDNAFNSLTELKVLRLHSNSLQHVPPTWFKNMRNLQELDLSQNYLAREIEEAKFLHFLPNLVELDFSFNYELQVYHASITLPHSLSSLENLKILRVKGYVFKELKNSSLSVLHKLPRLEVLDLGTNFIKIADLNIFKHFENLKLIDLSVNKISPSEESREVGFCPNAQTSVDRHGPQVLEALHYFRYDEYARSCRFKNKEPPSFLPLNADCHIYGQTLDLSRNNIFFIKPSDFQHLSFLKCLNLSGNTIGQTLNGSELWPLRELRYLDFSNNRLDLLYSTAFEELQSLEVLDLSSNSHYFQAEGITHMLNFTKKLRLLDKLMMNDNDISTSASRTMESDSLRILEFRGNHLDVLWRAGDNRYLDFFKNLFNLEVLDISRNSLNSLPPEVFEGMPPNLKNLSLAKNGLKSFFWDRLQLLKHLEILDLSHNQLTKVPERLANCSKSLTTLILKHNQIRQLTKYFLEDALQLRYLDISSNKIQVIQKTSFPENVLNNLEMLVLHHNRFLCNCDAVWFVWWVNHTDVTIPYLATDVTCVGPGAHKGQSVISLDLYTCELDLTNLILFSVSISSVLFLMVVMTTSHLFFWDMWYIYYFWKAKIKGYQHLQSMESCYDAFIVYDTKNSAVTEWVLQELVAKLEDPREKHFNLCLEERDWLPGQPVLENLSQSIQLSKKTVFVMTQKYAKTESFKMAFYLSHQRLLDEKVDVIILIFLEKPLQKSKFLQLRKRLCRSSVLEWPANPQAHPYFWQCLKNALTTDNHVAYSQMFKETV
In words: Mouse spleen cell-based assay, R848 stimulus, IL-6 ELISA. As to the method: Spleens were harvested from female BALB/c mice (Jackson Labs, Bar Harbor, Me.) euthanized by CO2. A single cell suspension was obtained by passing spleens through a 40 μm nylon cell strainer. Cells were washed twice with 50 ml PBS (Mediatech, Inc., Manassas, Va.) and red blood cells were lysed in 5 ml RBC Lysis buffer (eBioscience, Inc., San Diego, Calif.) for 5 minutes at room temperature. Cells were washed twice more in PBS and finally resuspended in supplemented RPMI-1640 at 2.5×10^6 cells/ml. Cells were plated at 100 μl/well (2.5×10^5 cells/well) in 96-well tissue culture treated plates (Falcon). Serial dilutions of compounds solubilized in 100% DMSO were added in triplicate to cells to yield a final concentration of 0.1% DMSO. Cells were incubated with compound for 30 minutes at 37° C., 5% CO2 before adding 100 μl/well of 740 nM R848 (Resiquimod; GLSynthesis, Worcester, Mass.) in complete media for a final concentration of 370 nM R848. Cells were incubated for 20 hours at 37° C., 5% CO2. Culture supernatants were collected, and levels of IL-6 were assessed by standard ELISA procedure according to the manufacturer's recommended protocol (BD Biosciences, Inc., San Diego, Calif.).

For another experiment, the system named is T2, Human TLR7/8.
T2 construct: IC50; other: Hu PBMC; ligand RNA-Ig; analyte IL-6; analyte TNFα; ligand R848; IC50 against the RNA-Ig TLR7/8 stimulus; cytokine responses to RNA-Ig complexes in vitro; potency against the RNA-Ig TLR7/8 stimulus versus HCQ
In words: Human PBMC cell-based assay, RNA-Ig (SL4-Ig) stimulus, cytokine ELISA. On the procedure:
Briefly, 25 ml blood was diluted with 15 ml PBS (without Ca^2+, Mg^2+) in a 50 ml conical tube, and 12 ml Histopaque was underlaid using a spinal needle. Tubes were centrifuged for 45 minutes at 1200 rpm (350×g), and PBMC were collected from the buffy coat. Cells were then washed twice in PBS, and red blood cells were lysed by suspension in 5 ml ammonium chloride solution (1× Red Blood Cell Lysis Buffer, eBioscience) for 5 minutes at room temperature.
Antagonist compounds solubilized and serial diluted in 100% DMSO were added in triplicate to cells to yield a final concentration of 0.1% DMSO (v/v). Hydroxychloroquine (Acros Organics) solubilized and serial diluted in PBS was added in triplicate to cells. […] The resulting “RNA-Ig” stimulus was incubated at room temperature for 15-30 minutes before adding to cells. PBMC were incubated with the various TLR agonists for 20 hours at 37° C., 5% CO2. Cell culture supernatants were collected, and levels of various human cytokines were assessed as indicated by standard ELISA procedure according to the manufacturer's recommended protocol (BD Biosciences, Inc., San Diego, Calif.).

Where [1] appears, read: Mouse Splenocyte IL-6 Inhibition (R848 Ligand), read-out: Mouse Splenocyte IC50.
Setting [2] is: Human PBMC IL-6 Inhibition (SL4-Ig Ligand), read-out: Human PBMC IC50.

For `COc1ccc([C@@H]2C[C@H](C(F)(F)F)n3nc(-c4ccncc4)cc3N2)cc1OC` [ER-885454], the results for the IC50 on Mouse TLR7 (setting [1]) and with Human TLR7/8 (setting [2]) were 680 nM and 676 nM, respectively.

As to `COc1ccc([C@@H]2C[C@H](C(F)(F)F)n3nc(-c4ccc(C(=O)N5CCNCC5)cc4)cc3N2)cc1OC` [ER-892887, (4-((5S,7R)-5-(3,4-dimethoxyphenyl)-7-(trifluoromethyl)-4,5,6,7-tetrahydropyrazolo[1,5-a]pyrimidin-2-yl)phenyl)(piperazin-1-yl)methanone], the IC50 at Mouse TLR7 (setting [1]) was 70 nM and 330 nM; at Mouse TLR7 (Mu Spleen, ligand R848, analyte IL-6, read-out: IC50), 70 nM; with Human TLR7/8 (Hu PBMC, ligand RNA-Ig, analyte TNFα, read-out: IC50), 13 nM; in the experiment on Human TLR7/8 (setting [2]) it was 40 nM and 51 nM; with Human TLR7/8 (read-out: IC50 against the RNA-Ig TLR7/8 stimulus), 15 nM. Moreover, in the experiment on Human TLR7/8, the “cytokine responses to RNA-Ig complexes in vitro” value is listed as “blocks”. In addition, the “potency against the RNA-Ig TLR7/8 stimulus versus HCQ” value in the experiment on Human TLR7/8 (ratio of IC50 values, more potent than HCQ) is “approximately 100 fold”.

Turning to `Cc1nn(C)cc1[C@@H]1C[C@H](C(F)(F)F)n2nc(-c3ccc(NC(N)=O)cc3)cc2N1` [ER-894595], the IC50 at Mouse TLR7 (setting [1]) came out at 3110 nM; in the experiment with Human TLR7/8 (setting [2]), 2160 nM.

With `Cc1nn(C)cc1[C@H]1C[C@@H](C(F)(F)F)n2nc(-c3ccc(NC(N)=O)cc3)cc2N1` [ER-894596], the figures for the IC50 at Mouse TLR7 (setting [1]) and in the experiment with Human TLR7/8 (setting [2]) were 3020 nM and 1750 nM, respectively.
